# Test results taken from patent publication US12364709B2, “Bioavailable poly amines” (AMINEX THERAPEUTICS, INC., priority 2016, dated 2025).
# “And” between values parts separate entries of the source, which are not always exact repeats. Equal entries are not always repeated. Where two headings read alike, the source gives them in different places.
# Test: 5 day repeat oral dosing PK of AMXT 1501 dicaprate
# Format: in vivo, beagle dogs
# Procedure: The pharmacokinetic (PK) profiles after dosing on Days 1 and 5 were evaluated using standard noncompartmental methods. The following experimental design was used. Beagle dogs, 1 or 2 males and 1 or 2 females for a total of 3 dogs per group, were randomly assigned to the four treatment groups as outlined in Table 19. AMXT 1501 dicaprate salt was administered in tablet form once daily for five days. […] Plasma samples were analyzed for AMXT 1501 concentration via a liquid chromatography/mass spectrometry (LC/MS-MS) procedure and the resulting concentration versus time data were used to estimate individual animal PK parameters using noncompartmental analysis (NCA).
# [1] = 8 mg/kg PO once daily, Day 5, individual animals
# [2] = 8 mg/kg PO, Day 1, individual animals
# [3] = 16 mg/kg PO once daily, Day 5, individual animals
# [4] = 16 mg/kg PO, Day 1, individual animals
# [5] = 32 mg/kg PO once daily, Day 5, individual animals
# [6] = 32 mg/kg PO, Day 1, individual animals
structure (smiles),measurement,setting,value
CCCCCCCCCCCCCCCC(=O)NCCCC[C@@H](N)C(=O)NCCCNCCCCNCCCN [AMXT 1501 dicaprate],AUC(0-t),[1],5620 ng·h/mL and 3100 ng·h/mL
same,Cmax,[1],360 ng/mL and 254 ng/mL
same,t1/2,[1],7.82 h
same,AUC(0-t),[2],2050 ng·h/mL
same,Cmax,[2],168 ng/mL
same,AUC(0-t),[3],11000 ng·h/mL
same,Cmax,[3],454 ng/mL and 714 ng/mL
same,Tmax,[3],12.0 h
same,AUC(0-t),[4],3190 ng·h/mL and 3300 ng·h/mL
same,Cmax,[4],249 ng/mL
same,t1/2,[4],36.2 h and 10.3 h
same,AUC(0-t),[5],11000 ng·h/mL and 11100 ng·h/mL
same,Cmax,[5],662 ng/mL and 708 ng/mL
same,AUC(0-t),[6],5830 ng·h/mL and 4900 ng·h/mL
same,Cmax,[6],446 ng/mL and 333 ng/mL
same,t1/2,[6],27.1 h and 10.0 h
same,half-life,"both sexes, beagle, dog, plasma, oral, Day 1, animals where it could be estimated, read-out: mean Day 1 t1/2 values, range across groups",7.99 to 23.2 h
same,half-life at 5 days,"both sexes, beagle, dog, plasma, oral, Day 5, animals where it could be estimated, read-out: mean Day 5 t1/2 values, range across groups",8.69 to 20.8 h
same,AUC(0-t),"both sexes, beagle, dog, plasma, po, 8 mg/kg, 8 mg/kg PO once daily, Day 5, group mean, read-out: AUC0-t Mean",4750 ng·h/mL
same,Cmax,"both sexes, beagle, dog, plasma, po, 8 mg/kg, 8 mg/kg PO once daily, Day 5, group mean, read-out: Cmax Mean",340 ng/mL
same,Tmax,"both sexes, beagle, dog, plasma, po, 8 mg/kg, 8 mg/kg PO once daily, Day 5, group mean, read-out: Tmax Mean",5.33 h
same,half-life,"both sexes, beagle, dog, plasma, po, 8 mg/kg, 8 mg/kg PO once daily, Day 5, group mean, read-out: t1/2 Mean (converted)",8.69 h
same,AUC(0-t),"both sexes, beagle, dog, plasma, po, 8 mg/kg, 8 mg/kg PO once daily, Day 5, individual animals, read-out: AUC0-t",5530 ng·h/mL
same,Cmax,"both sexes, beagle, dog, plasma, po, 8 mg/kg, 8 mg/kg PO once daily, Day 5, individual animals, read-out: Cmax",405 ng/mL
same,Tmax,"both sexes, beagle, dog, plasma, po, 8 mg/kg, 8 mg/kg PO once daily, Day 5, individual animals, read-out: Tmax",8 h
same,half-life,"both sexes, beagle, dog, plasma, po, 8 mg/kg, 8 mg/kg PO once daily, Day 5, individual animals, read-out: t1/2 (converted)",9.55 h
same,AUC(0-t),"both sexes, beagle, dog, plasma, po, 8 mg/kg, 8 mg/kg PO, Day 1, group mean, read-out: AUC0-t Mean",2030 ng·h/mL
same,Cmax,"both sexes, beagle, dog, plasma, po, 8 mg/kg, 8 mg/kg PO, Day 1, group mean, read-out: Cmax Mean",154 ng/mL
same,Tmax,"both sexes, beagle, dog, plasma, po, 8 mg/kg, 8 mg/kg PO, Day 1, group mean, read-out: Tmax Mean",6 h
same,half-life,"both sexes, beagle, dog, plasma, po, 8 mg/kg, 8 mg/kg PO, Day 1, group mean, read-out: t1/2 Mean (converted)",9.3 h
same,AUC(0-t),"both sexes, beagle, dog, plasma, po, 8 mg/kg, 8 mg/kg PO, Day 1, individual animals, read-out: AUC0-t",2010 ng·h/mL
same,Cmax,"both sexes, beagle, dog, plasma, po, 8 mg/kg, 8 mg/kg PO, Day 1, individual animals, read-out: Cmax",139 ng/mL
same,Tmax,"both sexes, beagle, dog, plasma, po, 8 mg/kg, 8 mg/kg PO, Day 1, individual animals, read-out: Tmax",8 h
same,half-life,"both sexes, beagle, dog, plasma, po, 8 mg/kg, 8 mg/kg PO, Day 1, individual animals, read-out: t1/2 (converted)",9.3 h
same,AUC(0-t),"both sexes, beagle, dog, plasma, po, 16 mg/kg, 16 mg/kg PO once daily, Day 5, group mean, read-out: AUC0-t Mean",8890 ng·h/mL
same,Cmax,"both sexes, beagle, dog, plasma, po, 16 mg/kg, 16 mg/kg PO once daily, Day 5, group mean, read-out: Cmax Mean",564 ng/mL
same,Tmax,"both sexes, beagle, dog, plasma, po, 16 mg/kg, 16 mg/kg PO once daily, Day 5, group mean, read-out: Tmax Mean",8 h
same,half-life,"both sexes, beagle, dog, plasma, po, 16 mg/kg, 16 mg/kg PO once daily, Day 5, group mean, read-out: t1/2 Mean (converted)",11.7 h
same,AUC(0-t),"both sexes, beagle, dog, plasma, po, 16 mg/kg, 16 mg/kg PO once daily, Day 5, individual animals, read-out: AUC0-t",9410 ng·h/mL
same,Cmax,"both sexes, beagle, dog, plasma, po, 16 mg/kg, 16 mg/kg PO once daily, Day 5, individual animals, read-out: Cmax",523 ng/mL
same,half-life,"both sexes, beagle, dog, plasma, po, 16 mg/kg, 16 mg/kg PO once daily, Day 5, individual animals, read-out: t1/2 (converted)",11.7 h
same,AUC(0-t),"both sexes, beagle, dog, plasma, po, 16 mg/kg, 16 mg/kg PO, Day 1, group mean, read-out: AUC0-t Mean",3450 ng·h/mL
same,Cmax,"both sexes, beagle, dog, plasma, po, 16 mg/kg, 16 mg/kg PO, Day 1, group mean, read-out: Cmax Mean",238 ng/mL
same,Tmax,"both sexes, beagle, dog, plasma, po, 16 mg/kg, 16 mg/kg PO, Day 1, group mean, read-out: Tmax Mean",5.33 h
same,half-life,"both sexes, beagle, dog, plasma, po, 16 mg/kg, 16 mg/kg PO, Day 1, group mean, read-out: t1/2 Mean (converted)",23.2 h
same,AUC(0-t),"both sexes, beagle, dog, plasma, po, 16 mg/kg, 16 mg/kg PO, Day 1, individual animals, read-out: AUC0-t",3870 ng·h/mL
same,Cmax,"both sexes, beagle, dog, plasma, po, 16 mg/kg, 16 mg/kg PO, Day 1, individual animals, read-out: Cmax",202 ng/mL
same,Tmax,"both sexes, beagle, dog, plasma, po, 16 mg/kg, 16 mg/kg PO, Day 1, individual animals, read-out: Tmax",8 h
same,AUC(0-t),"both sexes, beagle, dog, plasma, po, 32 mg/kg, 32 mg/kg PO once daily, Day 5, group mean, read-out: AUC0-t Mean",13000 ng·h/mL
same,Cmax,"both sexes, beagle, dog, plasma, po, 32 mg/kg, 32 mg/kg PO once daily, Day 5, group mean, read-out: Cmax Mean",837 ng/mL
same,Tmax,"both sexes, beagle, dog, plasma, po, 32 mg/kg, 32 mg/kg PO once daily, Day 5, group mean, read-out: Tmax Mean",6.67 h
same,half-life,"both sexes, beagle, dog, plasma, po, 32 mg/kg, 32 mg/kg PO once daily, Day 5, group mean, read-out: t1/2 Mean (converted)",10.7 h
same,AUC(0-t),"both sexes, beagle, dog, plasma, po, 32 mg/kg, 32 mg/kg PO once daily, Day 5, individual animals, read-out: AUC0-t",16800 ng·h/mL
same,Cmax,"both sexes, beagle, dog, plasma, po, 32 mg/kg, 32 mg/kg PO once daily, Day 5, individual animals, read-out: Cmax",1140 ng/mL
same,Tmax,"both sexes, beagle, dog, plasma, po, 32 mg/kg, 32 mg/kg PO once daily, Day 5, individual animals, read-out: Tmax",4 h
same,half-life,"both sexes, beagle, dog, plasma, po, 32 mg/kg, 32 mg/kg PO once daily, Day 5, individual animals, read-out: t1/2 (converted)",10.7 h
same,AUC(0-t),"both sexes, beagle, dog, plasma, po, 32 mg/kg, 32 mg/kg PO, Day 1, group mean, read-out: AUC0-t Mean",5660 ng·h/mL
same,Cmax,"both sexes, beagle, dog, plasma, po, 32 mg/kg, 32 mg/kg PO, Day 1, group mean, read-out: Cmax Mean",447 ng/mL
same,Tmax,"both sexes, beagle, dog, plasma, po, 32 mg/kg, 32 mg/kg PO, Day 1, group mean, read-out: Tmax Mean",5.33 h
same,half-life,"both sexes, beagle, dog, plasma, po, 32 mg/kg, 32 mg/kg PO, Day 1, group mean, read-out: t1/2 Mean (converted)",18.6 h
same,AUC(0-t),"both sexes, beagle, dog, plasma, po, 32 mg/kg, 32 mg/kg PO, Day 1, individual animals, read-out: AUC0-t",6250 ng·h/mL
same,Cmax,"both sexes, beagle, dog, plasma, po, 32 mg/kg, 32 mg/kg PO, Day 1, individual animals, read-out: Cmax",563 ng/mL
same,Tmax,"both sexes, beagle, dog, plasma, po, 32 mg/kg, 32 mg/kg PO, Day 1, individual animals, read-out: Tmax",8 h
same,Tmax,"both sexes, beagle, dog, plasma, po, 32 mg/kg, single or repeat once daily PO 8, 16, or 32 mg/kg, postdose, read-out: Tmax observed",4 to 12 h
